{
  "source": "patent US8722654B2",
  "about": "“Lipoxin analogs as novel inhibitors of angiogenesis” (The Brigham and Women's Hospital, Inc., priority 2001, dated 2014)",
  "format_in_all_cases": "in vivo, BALB/c mice",
  "key": {"TNF-α": {"test_system": "TNF-α", "assay": "TNF-α mRNA in inflamed corneas, real-time PCR", "description": "(§1) The standard model for induction of inflammatory corneal NV is associated with development of intrastromal vessels in close association with a mixed-cell (primarily neutrophilic) infiltrate. (43,44) Three interrupted sutures (11-0 nylon, Sharpoint; Vanguard, Houston, Tex.) were placed intrastromally with two stromal incursions extending over 120° of the corneal circumference each to induce inflammatory corneal NV, which is also associated with significant LA, as described previously. (43) The corneas were followed by slit-lamp biomicroscopy for corneal NV development. […]\n(§2) BALB/c mice were randomized to receive ATLa, or vehicle (normal saline) by subconjunctival injection in a masked fashion after suture or hydron pellet placement. […] (49) The physical properties were monitored routinely via LC/MS/MS matching the reported biological and physical properties prior to analysis in present experiments. […]\n(§3) 1 μl of total cDNA, synthesized from 400 ng total RNA with random hexamers using Superscript™ III Reverse Transcriptase (Invitrogen, Carlsbad, Calif.), was loaded in each well and assays were performed in triplicates. […] The results were analyzed by comparative threshold cycle (CT) method. The relative expression level of each sample was expressed as fold change from normal control."}, "IL-1α": {"test_system": "IL-1α", "assay": "IL-1α mRNA in inflamed corneas, real-time PCR", "conditions": "24 h and 72 h", "description": "as §1, §2, §3"}, "VEGF-A": {"test_system": "VEGF-A", "assay": "VEGF-A mRNA in inflamed corneas, real-time PCR", "conditions": "24 h and 72 h after suture placement", "description": "as §1, §2, §3"}, "[1]": {"test_system": "suture-induced corneal NV", "assay": "Suture-induced inflammatory corneal angiogenesis (HA and LA)", "description": "(§4) Six to eight-week-old male BALB/c (Taconic Farms, Germantown, N.Y.) mice were used in all experiments. All experimental protocols were approved by the Schepens Eye Research Institute Animal Care and Use Committee, and all animals were treated according to the Association for Research in Vision and Ophthalmology Statement for the Use of Animals in Ophthalmic and Vision Research.\nas §1\n(§5) BALB/c mice were randomized to receive ATLa, or vehicle (normal saline) by subconjunctival injection in a masked fashion after suture or hydron pellet placement. […] (49) The physical properties were monitored routinely via LC/MS/MS matching the reported biological and physical properties prior to analysis in present experiments.\n(§6) Full thickness corneal tissue or 8 μm-frozen sections were fixed in acetone for 15 minutes at room temperature. […] Finally, the samples were covered with mounting medium (Vector Laboratories, Burlingame, Calif.) and analyzed by epifluorescence microscopy (Eclipse E800; Nikon, Tokyo, Japan). […]\nTo quantify corneal angiogenesis, digital pictures of corneal flat-mounts were taken using an image analysis system (Spot Image Analysis, Diagnostic Instruments, Sterling Heights, Mich.). The areas covered by CD31^high/LYVE-1^−-vessels (blood vessels) or CD31^lowLYVE-1^high vessels (lymphatics) were measured morphometrically using NIH Image J software (version 1.34s; http://rsb.info.nih.gov/ij). […] The vessel density was calculated by the proportion of neovascularized area to the whole corneal area."}, "VEGF-C": {"test_system": "VEGF-C", "assay": "VEGF-C mRNA in inflamed corneas, real-time PCR", "conditions": "24 h and 72 h after suture placement", "description": "as §1, §2, §3"}, "VEGF-D": {"test_system": "VEGF-D", "assay": "VEGF-D mRNA in inflamed corneas, real-time PCR", "conditions": "vs vehicle-treated controls", "description": "as §1, §2, §3"}, "mouse IL-1 beta": {"test_system": "mouse IL-1 beta", "assay": "IL-1β protein in inflamed corneas, ELISA", "description": "FIG. 13, ATLa Regulates IL-1β. Mice were treated at 0 h and 48 h after suture-placement with ATLa or vehicle. Whole corneas were excised at 72 h, and subsequently freeze-thawed 3 times. Cornea was then homogenized using a pellet pestile motor with additional protease inhibitors. Homogenates were centrifuged at 12,000 rpm for 5 minutes and the supernatant was assayed for mouse IL-1 beta via ELISA (eBioscience, USA) according to the manufacturer's instructions.\nas §1, §5"}, "inflamed corneas": {"test_system": "inflamed corneas", "assay": "Neutrophil and macrophage infiltration in suture-inflamed corneas", "description": "as §4\nThe standard model for induction of inflammatory corneal NV is associated with development of intrastromal vessels in close association with a mixed-cell (primarily neutrophilic) infiltrate. (43,44) Three interrupted sutures (11-0 nylon, Sharpoint; Vanguard, Houston, Tex.) were placed intrastromally with two stromal incursions extending over 120° of the corneal circumference each to induce inflammatory corneal NV, which is also associated with significant LA, as described previously. (43) The corneas were followed by slit-lamp biomicroscopy for corneal NV development. NV was graded between 0 and 3, with increments of 0.5, using a grid system per each corneal quadrant based on the centripetal extent of the neovascular branches from the limbus. Scores for each quadrant then summed to derive the NV index (range 0 to 12) for each eye, as previously described. (43)\nBALB/c mice were randomized to receive ATLa, or vehicle (normal saline) by subconjunctival injection in a masked fashion after suture or hydron pellet placement. The compounds were administered at a dose of 100 ng/10 μl per mouse every 48 h after suture or pellet placed. ATLa was synthesized as described previously. (49) The physical properties were monitored routinely via LC/MS/MS matching the reported biological and physical properties prior to analysis in present experiments.\nFull thickness corneal tissue or 8 μm-frozen sections were fixed in acetone for 15 minutes at room temperature. To block non-specific staining, anti-FcR mAb ([…], FcγIII/II receptor) or 10% goat serum was used before primary antibodies or isotype-matched control antibodies were applied at 4° C. overnight. Thereafter, samples were incubated with secondary antibodies at RT. Each step was followed by three thorough washings in PBS for 5-10 minutes. Finally, the samples were covered with mounting medium (Vector Laboratories, Burlingame, Calif.) and analyzed by epifluorescence microscopy (Eclipse E800; Nikon, Tokyo, Japan). The following antibodies were used: FITC-conjugated rat anti-mouse CD31 (Santa Cruz Biotechnology, Santa Cruz, Calif.), purified rat anti-mouse neutrophil (NIMP-R14, Abcam, Cambridge, Mass.), purified rat anti-mouse F4/80 (Novus Biologicals, Littleton, Colo.) and purified rabbit anti-mouse LYVE-1 (Abcam, Cambridge, Mass.). The secondary antibodies were Rodamine-conjugated donkey anti-rabbit IgG and Rodamine-conjugated goat anti-rat IgG (Santa Cruz Biotechnology, Santa Cruz, Calif.). Isotype controls included FITC-conjugated rat IgG2a, purified rat IgG2b, and purified rabbit IgG (Santa Cruz Biotechnology, Santa Cruz, Calif.)."}, "IL-1β": {"test_system": "IL-1β", "assay": "IL-1β mRNA in inflamed corneas, real-time PCR", "conditions": "vs vehicle-treated controls", "description": "as §1, §2, §3"}, "VEGFR-2": {"test_system": "VEGFR-2", "assay": "VEGFR-2 mRNA in inflamed corneas, real-time PCR", "conditions": "24 h and 72 h after suture placement", "description": "as §1, §2, §3"}, "[2]": {"test_system": "IL-1β-induced corneal HA and LA", "assay": "Corneal micropocket assay, IL-1β pellet", "conditions": "IL-1β micropellet", "description": "(§7) The corneal micropocket assay in mice and quantification of the resultant NV has been described previously. (45,46) In brief, 0.3 μl of hydron pellets (IFN Sciences, New Brunswick, N.J.) containing 30 ng of murine IL-1β (R&D Systems, Minneapolis, Minn.) or 200 ng of VEGF-A (gift from BRB Preclinical Repository, National Cancer Institute) were prepared and implanted into the corneal stroma of male BALB/c mice. After 7 days the animals were sacrificed and the corneas were harvested for quantitative analysis of HA and LA.\nas §5, §6\n(§8) To quantify corneal angiogenesis, digital pictures of corneal flat-mounts were taken using an image analysis system (Spot Image Analysis, Diagnostic Instruments, Sterling Heights, Mich.). […]"}, "[3]": {"test_system": "VEGF-A-induced corneal HA and LA", "assay": "Corneal micropocket assay, VEGF-A pellet", "conditions": "VEGF-A micropellet", "description": "as §7, §5, §6, §8"}, "VEGFR-3": {"test_system": "VEGFR-3", "assay": "VEGFR-3 mRNA in inflamed corneas, real-time PCR", "conditions": "vs vehicle-treated controls", "description": "as §1, §2, §3"}, "[4]": {"conditions": "72 h after suture placement, n=3"}},
  "data": [
    {"molecule": "COC(=O)CCC[C@H](O)[C@H](O)/C=C/C=C/C=C\\C=C\\[C@H](O)COc1ccc(F)cc1", "note": "[ATLa, 15-epi-16-(para-fluoro)-phenoxy-lipoxin A4 methyl ester]", "values": [
      {"measurement": "increase in TNF-α expression", "setting": "TNF-α; 24 h", "result": "significantly suppressed"},
      {"measurement": "increase in TNF-α expression", "setting": "TNF-α; 72 h", "result": "not at 72 h"},
      {"measurement": "expression of IL-1α", "setting": "IL-1α", "result": "not significantly altered"},
      {"measurement": "mRNA expression of VEGF-A", "setting": "VEGF-A", "result": "lower mRNA expressions"},
      {"measurement": "growth of corneal neovessels, slit lamp biomicroscopy", "setting": "[1]; 2-week time course", "result": "significant suppression of the angiogenic response"},
      {"measurement": "density of lymphatic vessels", "setting": "[1]; day 14, vs vehicle", "result": "not observed"},
      {"measurement": "BV density", "setting": "[1]; day 14 after suture placement, n=6", "result": "8.26±0.63", "unit": "%"},
      {"measurement": "mRNA expression of VEGF-C", "setting": "VEGF-C", "result": "lower mRNA expressions"},
      {"measurement": "mRNA expression of VEGF-D", "setting": "VEGF-D", "result": "not significantly altered"},
      {"measurement": "IL-1 beta in corneas", "setting": "mouse IL-1 beta; 72 h, treated at 0 h and 48 h, n=4", "result": "21.3 ± 0.8", "unit": "pg/mL"},
      {"measurement": "decrease in IL-1β protein level", "setting": "mouse IL-1 beta; vs vehicle-treated group", "result": 70, "unit": "%"},
      {"measurement": "inhibition of neutrophils recruitment", "setting": "inflamed corneas; 24 and 72 h, 100 ng subconjunctival at 0 and 48 h", "result": "~30", "unit": "%"},
      {"measurement": "neutrophils", "setting": "inflamed corneas; 24 h after suture placement, n=3", "result": "53±1", "unit": "cells/section"},
      {"measurement": "reduction in macrophage infiltration", "setting": "inflamed corneas; 72 h, vs vehicle", "result": "25-40%"},
      {"measurement": "macrophage", "setting": "inflamed corneas; [4]", "result": "46±5", "unit": "cells/section"},
      {"measurement": "neutrophils", "setting": "inflamed corneas; [4]", "result": "34±5", "unit": "cells/section"},
      {"measurement": "reduction in the increase of IL-1β expression levels", "setting": "IL-1β", "result": "more than 50%"},
      {"measurement": "mRNA expression of VEGFR-2", "setting": "VEGFR-2", "result": "lower mRNA expressions"},
      {"measurement": "LA", "setting": "[2]; day 7", "result": "no significant reduction"},
      {"measurement": "BV density", "setting": "[2]; day 7, n=4", "result": "16.1±3.0", "unit": "%"},
      {"measurement": "LA", "setting": "[3]; day 7", "result": "no significant reduction"},
      {"measurement": "BV density", "setting": "[3]; day 7, n=4", "result": "5.9±0.4", "unit": "%"},
      {"measurement": "mRNA expression of VEGFR-3", "setting": "VEGFR-3", "result": "not significantly altered"}
    ]}
  ]
}
